# “And” between values parts separate entries of the source, which are not always exact repeats. Identical values can stand only once. Marks after values point to notes of the source that are not given here.
# Legend:
# [1] = system: commercial finishing pigs (PIC 800×PIC 1050); assay: Carcass characteristics of finishing pigs fed increasing dietary 78% Na-DMG (Example 1); type: in vivo; conditions: for 10th-rib backfat depth reduction (numerical) / Loin depth improvement compared to Control: carcasses; for Loin depth improvement compared to Control: P<0.05
# Description: A study was conducted to evaluate the impact of increasing dietary levels of 78% Na-DMG on carcass characteristics of commercial finishing pigs (PIC 800×PIC 1050). A total of 723 mixed-sex finishing pigs (initial BW=179.5±1.0 lb) were housed in pens with 25 to 27 pigs per pen. […] This experiment extended over a 6-week period until pigs were harvested at 292.5±1.7 lb of BW.
# [2] = system: sows; conditions: sows fed DMG from day 105 of gestation until day 3 of lactation; cited from earlier work
# [3] = system: sows (PIC 1050); assay: Milk fat content in sows fed Na-DMG (78%) (Example 2); type: in vivo, pigs
# [4] = system: growing pigs; assay: Incidence of lameness in pigs fed DMG (Example 4); type: in vivo
# Description: A total of 1,180 growing pigs (initial BW=51.4±1.0 lb) were housed in pens with 25 to 27 pigs per pen. […] This experiment extended over a 17-wk period until pigs were harvested at 292.5±1.7 lb of BW. Signs of lameness were recorded, and percentage of pigs removed to hospital pens due to lameness were calculated (Table 3).
# [5] = system: finishing pigs; assay: Meta-analysis (3-trial combined) of morbidity, mortality and F/G in late finishing pigs fed Na-DMG (Examples 5 and 7); type: in vivo
# Source text: Three studies were compiled to evaluate the effects of dietary supplementation of Na-DMG (78%) on morbidity and mortality in finishing pigs. In each study, pigs were fed either a Control diet or diet containing Na-DMG at 0.50 lb/ton from approximately 180 lb of body weight until harvested at 290 lb for a period of 6 to 8 weeks. […] Reasons of morbidity and mortality included, but not limited to, lameness, ileitis, bacterial infection, injury, prolapse, intestinal torsion, stomach ulcers, abdominal rupture, bloat, failure to eat.
# (§1) Animals produce greenhouse gases due to biological processes for growth and maintenance functions. Pig production would therefore be a source of greenhouse gases and wean to finish production would result in production of carbon dioxide, methane, and nitrous oxide emissions. Using the Iowa Pork Industry's sustainability calculator, we calculated the impact feedings of DMG in late finishing would have on greenhouse gas emissions. […] We then took similar estimates for early performance and estimated F/G and mortality for an entire grow-out period to use in the calculator. The calculator provides equivalent lb. of carbon dioxide per lb. or market weight for comparison purposes. By adding DMG in late finishing, carbon dioxide emissions were reduced by 3% during the entire wean to finish grow-out.
# [6] = Calculated wean-to-finish performance and greenhouse gas emissions, Pork Sustainability Calculator (Example 7); design: species or system pigs; conditions: DMG @ 0.5 lb/ton in late finishing
# Source text: as §1
# [7] = system: rats; conditions: when folate was sufficient; cited from earlier work
# [8] = system: broilers; conditions: cited from earlier work
# [9] = system: lactating sows; assay: Serum non-esterified fatty acids (NEFA) in lactating sows (Example 6); type: in vivo, pigs; conditions: 445 mg Na-DMG per day, measured at weaning
# Source text: Serum non-esterified fatty acids (NEFA) are molecules released from adipose tissue during periods of energy demand or catabolic status. In research of energy metabolism, NEFA level has been used as biomarker to assess balance between fat mobilization and energy expenditure.
# [10] = system: commercial finishing pigs; assay: Growth performance, livability and carcass characteristics of finishing pigs fed DMG (Example 3); type: in vivo; conditions: for ADFI / Carcass yield / Closeout ADG / Closeout G/F / End BW / Fat depth / Fat-free carcass lean / Hot carcass weight / Loin depth / Non-selected pigs (lights and culls) / Morbidity / Mortality / Pigs sold to primary market: 8-wk
# Source text: To evaluate the impact of increasing dietary levels of 78% sodium dimethylglycine (DMG) on growth performance, livability, and carcass characteristics of commercial finishing pigs, a total of total of 1,115 mixed-sex finishing pigs (initial BW=70.1±1.8 kg) were housed in pens with 25 to 27 pigs per pen. Pens within block were assigned randomly to one of four dietary treatments containing 0 (Control), 0.25 (DMG_0.25), 0.5 (DMG_0.5) or 1.0 (DMG_1.0) g DMG/kg of feed with 11 replicates per treatment. This experiment extended over an 8-wk period until pigs were harvested at 125.4±0.8 kg of BW.
# Data were analyzed using the MIXED procedure of SAS, and preplanned orthogonal contrasts were conducted to evaluate pairwise comparisons as well as linear and quadratic effects related to the increased levels of DMG. While no linear effect was observed, there was a tendency for a quadratic response in closeout feed efficiency (G/F, P=0.08) and the percentage of pigs with morbidity (P=0.06), with the most favorable responses found in pigs fed DMG_0.25 (Table 2).
# [11] = Na-DMG 0.50 lb/ton, approx. 180 to 290 lb BW, 6 to 8 weeks
smiles,measurement,setting,value
"CN(C)CC(=O)O [DMG, N,N-dimethylglycine]",Fat-free carcass lean,"[1]; DMG at 0.25 lb/ton, P<0.10",tended to be improved
same,10th-rib backfat depth reduction (numerical),[1]; DMG at 0.25 lb/ton,3.4%
same,Loin depth improvement compared to Control,[1]; DMG at 0.25 lb/ton,2.5%
same,10th-rib backfat depth reduction (numerical),[1]; DMG at 0.50 lb/ton,2.3%
same,Loin depth improvement compared to Control,[1]; DMG at 0.75 lb/ton,3.5%
same,"Loin depth, response to increasing dietary DMG level","[1]; increasing dietary DMG level, P=0.04",linearly improved
same,Nutrient digestibility,[2],improved nutrient digestibility
same,"Total milk fat, % (Day 10-14 in lactation)",[3]; 0.5 lb/ton from day 100 of gestation through lactation,6.114%
same,"Total milk fat, % (Day 10-14 in lactation)",[3]; 0.5 lb/ton from farrowing through lactation,5.973%
same,Lameness (pigs removed to hospital pens due to lameness),"[4]; DMG_0.25 (0.25 lb DMG/ton feed), 17-wk",0.3%^d
same,Lameness (pigs removed to hospital pens due to lameness),"[4]; DMG_0.50 (0.50 lb DMG/ton feed), 17-wk",0.7%^cd
same,Lameness (pigs removed to hospital pens due to lameness),"[4]; DMG_0.75, 17-wk",1.4%^cd
same,Incidence of lameness compared to Control,"[4]; regardless of dietary concentration, statistically (P<0.10) or numerically (P>0.10)",reduced incidence of lameness
same,"Closeout F/G, late finishing testing period",[5]; DMG @ 0.5 lb/ton,3.30
same,"Closeout F/G, late finishing testing period, % Change vs Control",[5]; DMG @ 0.5 lb/ton,−4.6%
same,"Mortality, late finishing testing period, % Change vs Control",[5]; DMG @ 0.5 lb/ton,−39.0%
same,Reduction of morbidity compared to Control,[5]; Na-DMG 0.50 lb/ton,72%
same,Reduction of total removal compared to Control,[5]; Na-DMG 0.50 lb/ton,53%
same,Morbidity,[5]; [11],0.36%
same,Mortality,[5]; [11],1.08%
same,Non-selected (culls and lights),[5]; [11],5.48%
same,Pigs sold to primary market,[5]; [11],93.1%
same,Total pigs finished,[5]; [11],98.6%
same,Total removal,[5]; [11],1.44%
same,"Calculated wean-to-finish closeout F/G, % Change vs Control",[6],−2.6%
same,"Calculated wean-to-finish mortality, % Change vs Control",[6],−18.3%
same,Calculated wean-to-finish mortality,[6]; early mortality rate of 2% combined,3.08%
same,Calculated wean-to-finish closeout F/G,[6]; feed budget of 353 lb per pig combined,2.58
same,Plasma homocysteine level,[7],significantly reduced
same,Nutrient digestibility,[8],improved nutrient digestibility
same,Serum NEFA reduction compared to Control,[9],32%
same,"Carcass characteristics (hot carcass weight, carcass yield, fat depth, loin depth, fat-free carcass lean)","[10]; 0.25, 0.5 and 1.0 g DMG/kg feed vs Control",not different among treatments
same,ADFI,[10]; 0.25 g DMG/kg feed,3.00^b kg/day
same,Carcass yield,[10]; 0.25 g DMG/kg feed,72.6%
same,Closeout ADG,[10]; 0.25 g DMG/kg feed,1.01 kg/day and 1.01^y kg/day
same,Closeout G/F,[10]; 0.25 g DMG/kg feed,0.337
same,End BW,[10]; 0.25 g DMG/kg feed,126.4 kg
same,Fat depth,[10]; 0.25 g DMG/kg feed,16.6 mm
same,Fat-free carcass lean,[10]; 0.25 g DMG/kg feed,56.2%
same,Hot carcass weight,[10]; 0.25 g DMG/kg feed,93.5 kg
same,Loin depth,[10]; 0.25 g DMG/kg feed,62.5 mm
same,Non-selected pigs (lights and culls),[10]; 0.25 g DMG/kg feed,8.7%
same,Increase in closeout ADG compared with Control,"[10]; 0.25 g DMG/kg feed, P=0.02",6%
same,Increase in closeout G/F compared with Control,"[10]; 0.25 g DMG/kg feed, P=0.05",4%
same,ADFI,[10]; 0.5 g DMG/kg feed,2.93^a kg/day
same,Carcass yield,[10]; 0.5 g DMG/kg feed,73.6%
same,Closeout ADG,[10]; 0.5 g DMG/kg feed,0.95^x kg/day
same,Closeout G/F,[10]; 0.5 g DMG/kg feed,0.326
same,End BW,[10]; 0.5 g DMG/kg feed,124.9 kg
same,Fat depth,[10]; 0.5 g DMG/kg feed,17.0 mm
same,Fat-free carcass lean,[10]; 0.5 g DMG/kg feed,56.0%
same,Hot carcass weight,[10]; 0.5 g DMG/kg feed,94.1 kg
same,Loin depth,[10]; 0.5 g DMG/kg feed,62.2 mm
same,Morbidity,[10]; 0.5 g DMG/kg feed,0.7^cd %
same,Mortality,[10]; 0.5 g DMG/kg feed,2.5^d %
same,Non-selected pigs (lights and culls),[10]; 0.5 g DMG/kg feed,9.4%
same,Pigs sold to primary market,[10]; 0.5 g DMG/kg feed,87.4%
same,ADFI,[10]; 1.0 g DMG/kg feed,2.99^ab kg/day
same,Carcass yield,[10]; 1.0 g DMG/kg feed,73.8%
same,Closeout ADG,[10]; 1.0 g DMG/kg feed,0.97^xy kg/day
same,Closeout G/F,[10]; 1.0 g DMG/kg feed,0.323
same,End BW,[10]; 1.0 g DMG/kg feed,125.8 kg
same,Fat depth,[10]; 1.0 g DMG/kg feed,16.8 mm
same,Fat-free carcass lean,[10]; 1.0 g DMG/kg feed,56.0%
same,Hot carcass weight,[10]; 1.0 g DMG/kg feed,94.2 kg
same,Loin depth,[10]; 1.0 g DMG/kg feed,61.7 mm
same,Morbidity,[10]; 1.0 g DMG/kg feed,2.2^d %
same,Mortality,[10]; 1.0 g DMG/kg feed,1.4^cd %
same,Non-selected pigs (lights and culls),[10]; 1.0 g DMG/kg feed,6.5%
same,Pigs sold to primary market,[10]; 1.0 g DMG/kg feed,90.0%
same,Growth performance and livability compared with Control,"[10]; DMG at 0.5 and 1.0 g/kg, P>0.10",not different compared with Control

# Source: patent publication US20250281440A1, “METHOD TO IMPROVE GROWTH PERFORMANCE, LIVABILITY, CARCASS CHARACTERISTICS AND/OR MILK QUALITY IN SWINE” (NutriQuest, LLC, priority 2024, published 2025)
